Assay: Human HepG2 cell viability assay in 384 well format
Assay type: toxicity, cell-based
Parameters: dose 125 nL, time 70.5 hour; concentration not given beside the values
Conditions: HepG2 cells, read-out: Inhibition

SMILES | cytotoxicity at 70.5 h [%]
CSc1ccc(C(=O)C2CCCN(C(=O)CCCn3cncn3)C2)cc1 (stereo unspecified) | -6.96
Cc1cccnc1CN1CCN(C[C@]2(O)CCCN3CCCC[C@@H]32)CC1 | -6.65
COCCC(=O)N1CCCC(CCC(=O)Nc2ccc(Cl)cc2)C1 (stereo unspecified) | -6.03
COc1ccc(N2CCN(C(=O)Cn3nc(C)c(C)c3C)C(C)C2)cc1 (stereo unspecified) | 6.36
CN(Cc1cc(C2CC2)on1)C(=O)C(c1cccnc1)N1CCCC1 (stereo unspecified) | -1.03
CCOC(=O)CNc1nc(COC)nc2c1cnn2C | -4.25
COc1ccc(CCn2ccnc2-c2cc3n(n2)CCCNC3)cc1 | -10.7
CC(C)=CCCC1(C)CCC(=O)N(CCNc2nc(C)cc(=O)[nH]2)C1 (stereo unspecified) | -10.3
CCCn1c(C)c(CC(=O)NC(C)CO)c2c1CC(C)(C)CC2=O (stereo unspecified) | 9.89
COCCc1noc(-c2cn(CCc3ccccc3)nn2)n1 | 2.44
CCCc1cc(=O)[nH]c(-c2cccc(CN3CCCCCC3)c2)n1 | 25.8
O=C(CSCC1CC1)N1C[C@@H]2CC[C@H](C1)N(Cc1ccccn1)C2=O | -8.12
C[C@@H]1CN(C2CCN(Cc3cnc(-c4cccs4)nc3)CC2)C[C@H](C)O1 | 1.06
CCc1nc(C)sc1C(=O)N1CCN(c2ncccc2C)CC1 | -4.24
CSCc1noc(C2CCC(=O)N(CCc3ccccc3)C2)n1 (stereo unspecified) | -13.9
Cc1nc(CC(=O)N2CCCN(c3ccc(F)cc3)CC2)cs1 | -3.38
CCCOC1CCCN(C(=O)Cn2cccc(C(F)(F)F)c2=O)C1 (stereo unspecified) | -6.8
CC(C)[C@H](Nc1nc(C2CCCC2)nc2c1cnn2C)C(N)=O | -12.3
CC(C)CN1C[C@@H](C(=O)O)C[C@@H](C(=O)NCc2ccncc2)C1 | -2.12
CC(=O)c1ccc(N2CCCC(CO)(Cc3ccccc3F)C2)nc1 (stereo unspecified) | 20.4
CCCNc1ncc(CN2CCN(C)C(=O)C2C)cn1 (stereo unspecified) | 16
Cc1ncsc1CCC(=O)N1CCN(CCn2cncn2)CC1 | -10.7
COCC(=O)NCc1cc2n(n1)CCCN(CCCC1CCCC1)C2 | -2.24

SMILES | cytotoxicity at 70.5 h [%]
NC(=O)c1cncc(N2CCN(Cc3cccc4nsnc34)CC2)n1 | -5.47
Cc1cncc(C(=O)N2C[C@@H](C(=O)O)[C@H](C(C)C)C2)c1 | 28.4
O=C(c1csc2nc(-c3ccc(Cl)cc3)cn12)N1CCCC(CO)C1 (stereo unspecified) | -5.49
COCCn1c(=O)n(Cc2cccc(F)c2F)c2cc(C(=O)O)ccc21 | 18.8
Cc1cccc(OC2CCN(C(=O)CNC(=O)N(C)C)CC2)c1 | -0.834
COc1cccc(OCC2CCCN(C(=O)c3cnn(C)c3)C2)c1 (stereo unspecified) | 27.4
Cc1nc(C)c(-c2nnc(SCC(=O)O)n2C(C)c2ccccc2)o1 (stereo unspecified) | -2.71
CO[C@H]1CNC[C@@H]1NC(=O)c1cc(C)nc2c(C)cc(C)cc12 | 2.49
CCC(C)N(Cc1sccc1C)C(=O)c1ccc2cccnc2n1 (stereo unspecified) | -11.7
CCOc1ccc2[nH]c(=O)c(CN3CCC(N4CCCC4)CC3)cc2c1 | -4.41
Cc1ccsc1[C@@H]1CCN(C(=O)Cc2ccc(O)cc2)C[C@H]1O | -2.32
CC1=C(CCN2C[C@H](O)[C@@H](N3CCOCC3)C2)C(C)(C)CCC1 | -8.76
Cn1c(Cn2ccnc2)nnc1C1CCN(C(=O)c2ccoc2)CC1 | -7.81
COc1ncc(-c2nccn2C(C)CCn2cccn2)cn1 (stereo unspecified) | 2.54
CCC[C@H]1CN(C2CCOCC2)C[C@@H]1NC(=O)CCCn1ccnc1 | -2.79
O=C(Nc1ccccc1N1CCOC1=O)N1CCSCC1 | 14.3
COc1cccc2c(=O)n(C3CCNCC3)cnc12 | -18.3
CCN(CC)Cc1cc(C(=O)N2CCCC(CC)(C(=O)O)C2)c(C)o1 (stereo unspecified) | -3.17
Cc1ccc2ncn(C(C)Cn3cccn3)c(=O)c2c1 (stereo unspecified) | -5.52
O=C(CCn1cncn1)N1C[C@H]2CC[C@@H]1CN(Cc1cccnc1)C2 | -9.48
CCc1nnc(CN(C)C(=O)C(CC)n2c(CC)nc3ccccc32)o1 (stereo unspecified) | 3.98
O=C1[C@@H]2C[C@H](O)CCN2C(=O)CN1CCSc1ccccn1 | 0.109
C1=CCN(c2nc(CC3CC3)nc3c2CCN(C2CCOCC2)CC3)C1 | -1.95

SMILES | cytotoxicity at 70.5 h [%]
COc1cc(N2CCN(Cc3ccsc3)C(CCO)C2)nc(N)n1 (stereo unspecified) | 9.1
CCNC(=O)[C@@H]1C[C@@H](N)CN1Cc1ccc2cccc(Cl)c2n1 | 20.1
OCc1cn(CC2CCN(C3CCSC3)CC2)nn1 (stereo unspecified) | -8.28
CCCOC(=O)N1CCc2cccc(S(=O)(=O)N3CCOCC3)c2C1 | -8.66
CCCN1CCCn2nc(CNC(=O)CN(C)C3CCCC3)cc2C1 | -8
Cc1nc(CC(=O)NCCN2CCC(c3ccccc3C)C2)cs1 (stereo unspecified) | -8.35
O=C(O)C1(Oc2ccccc2F)CCN(C/C=C/c2ccco2)CC1 | -7.74
NC(=O)c1csc(N2C[C@@H](CN3CCC(O)CC3)[C@@H](CO)C2)n1 | -6.31
CN(Cc1cc(C2CC2)[nH]n1)Cc1cc2ccc(F)cc2[nH]c1=O | -12.6
CN(C)CCN1CC(C(=O)NCc2cn3cccnc3n2)CC1=O (stereo unspecified) | -5.17
CCc1ncc(C(=O)NCCN2CCNC2=O)cn1 | -5.68
COCCN1CCN(Cc2ccc(C(C)=O)cc2)[C@H]2CS(=O)(=O)C[C@H]21 | -5.05
Cc1ncc(S(C)(=O)=O)c(N2CCCN(Cc3ccccn3)CC2)n1 | -5.13
CCC[C@@H]1CN(c2ncnc3ccsc23)C[C@H]1NS(C)(=O)=O | -8.21
Fc1ccc(CC2CCN(Cc3nccs3)CC2)cc1 | -7.34
CN(C)CCN1CC2(CCCN(c3ccc(Cl)cn3)C2)CCC1=O (stereo unspecified) | 3.01
CN(C)C[C@H]1C[C@@H](CO)CN(C(=O)CCc2nc(Cl)n[nH]2)C1 | 4.5
CSc1ccc(CN2CCn3nc(CNC(C)=O)cc3C2)cc1 | -28.8
Cc1ccn(CCNc2ncnc3c2CCN(S(C)(=O)=O)CC3)n1 | 1.8
CCCc1nnc(N2CCN(c3cccc(OC)c3)C(=O)C2)o1 | 15.6
O=C(NCCCn1ccnn1)C1CCCN(C2CCCC2)C1 (stereo unspecified) | -1.79
CSCCCN1CC[C@@]2(O)CCN(c3ncccn3)C[C@H]2C1 | -2.32
CCC(Nc1ncccn1)c1cccnc1 (stereo unspecified) | 8.36

SMILES | cytotoxicity at 70.5 h [%]
CC(C)OC(=O)N1CCCC2(CCC(=O)N(CCc3c[nH]cn3)C2)C1 (stereo unspecified) | -1.99
CN(CCO)C[C@@H]1CN(Cc2ccccc2C#N)C[C@@H]1CO | -3.5
O=C(COc1ccccc1N1CCCC1)N1CCN[C@H]2CS(=O)(=O)C[C@H]21 | -7.17
O=C(N1CCOCC1)N1CCC(Nc2ccncn2)CC1 | -7.28
O=C(Nc1ccccc1OCCc1ccccn1)N1CCOCC(O)C1 (stereo unspecified) | -8.87
CC(C)N1CCCC(C(=O)NCCc2csc(-c3ccncc3)n2)C1 (stereo unspecified) | 22
COc1ccc(CCCC(=O)N2C[C@H](C3CC3)[C@@H](N(C)C)C2)cc1 | -9.86
O=C(NCC(O)c1ccc(F)cc1)C1CCN(C2CCCCC2)CC1 (stereo unspecified) | -7.05
CCCc1nncn1-c1cc(OC)ccc1OC | -1.39
CCCn1cnnc1CNC1CCSC1 (stereo unspecified) | -7.63
CCOc1ccc2[nH]c(=O)c(CN3CCCCC3C)cc2c1 (stereo unspecified) | -3.42
CCc1ccc(S(=O)(=O)N2CC[C@@](O)(CCOC)[C@H](C)C2)cc1 | -10.2
Cc1csc2ncnc(N3CCCC(Cn4cc(C(C)(C)O)nn4)C3)c12 (stereo unspecified) | -6.36
O=C1CC2(CCN(Cc3ccc(C(F)(F)F)nc3)CC2)CN1 | 8.74
C[C@@H]1CN(C(=O)c2c[nH]c(=O)c(Cl)c2)CC[C@@]1(O)C1CCOCC1 | -1.04
CCC(CO)N(Cc1ccco1)Cc1c(C)nn(C)c1Cl (stereo unspecified) | 3.17
CCc1cc(C(C)Nc2nc(-c3cccnc3)nc3c2CNC3)on1 (stereo unspecified) | -5.83
OC1(CNCCc2csc(-c3cccnc3)n2)CCNC1 (stereo unspecified) | -14.2
COc1ccc(OC2CCN(C(=O)C3CCCN(C)C3)CC2)cc1 (stereo unspecified) | -0.196
Cn1c(N2CCOCC2)nc2cc(C(=O)N3CCC(O)(CO)C3)ccc21 (stereo unspecified) | -2.61
CCn1c(N)nc2cc(C(=O)N3Cc4ccccc4C3)cnc21 | -4.1
Cc1cc(C)c2c(N(C)CC3CCOC3)ncnc2n1 (stereo unspecified) | -4.45
Cn1cccc1C(=O)N1CCC(c2nccn2Cc2ccncc2)CC1 | 25.5

SMILES | cytotoxicity at 70.5 h [%]
NCCc1cccc(CN2CCN(c3cccc(Cl)c3)C(=O)C2)c1 | -7.22
Cc1c[nH]c(CN2CCCCC2CCN(C)C)c(C)c1=O (stereo unspecified) | -10.5
O=C(c1ccc(C2CCCO2)s1)N1CCCOCC1 (stereo unspecified) | -8.57
COCc1cn(CC2CCN(Cc3cc(C)[nH]n3)CC2)nn1 | 20
NS(=O)(=O)CCCC(=O)N1CCC2(CC1)c1ccccc1CC2O (stereo unspecified) | -4.4
Cc1cc(CN2CCCC(CNC(=O)Cn3cccn3)C2)oc1C (stereo unspecified) | -6.83
COc1ccccc1[C@@H]1CN(CC2CCC2)C[C@H]1C(=O)O | -5.88
Cc1cc(C)n(CC(C)Nc2ncnc3c2CCNC3)n1 (stereo unspecified) | -11.9
Oc1cc(CNCCCN2CCCC2)nc2ccc(F)cc12 | 12.5
Clc1ccccc1OC1CCN(CC2CCOC2)CC1 (stereo unspecified) | 3.25
Oc1cc(CCC2CCCCN2)cc(-c2cccnc2)c1 (stereo unspecified) | -0.0954
O=C(c1ccc(S(=O)(=O)NCC(F)F)cc1)N1CC[C@H]2CNC[C@H]21 | 0.673
Cc1nnsc1C(=O)N1CCCC(c2nccn2Cc2cscn2)C1 (stereo unspecified) | -0.672
CN1C[C@@H]2CC[C@H](CC1=O)N2C(=O)c1cc2ccccc2[nH]c1=O | -6.85
CC(C)Oc1cc(N2CCN(Cc3ccsc3)C(CCO)C2)nc(N)n1 (stereo unspecified) | -17
Cc1nn(C)c(C)c1CN(C(=O)c1cc(Cl)c[nH]c1=O)C(C)C | -11
Cn1ccnc1-c1nccn1-c1cccc(CN2CCCC2)c1 | 2.21
O=S(=O)(Cc1ccccc1CN1CC[C@H](CO)[C@H](O)C1)c1ccccc1 | -7.73
COc1cc(F)ccc1-c1cc(CO)ccn1 | -8.15

Reference: ChEMBL document CHEMBL3507680, “University of Dundee, Gates Library screen for HepG2 cell viability”
